Conditions: 101.33 kPa, Liquid, transient hot wire

CCO [ethanol]
Conditions | thermal conductivity [W/m/K]
276.51 K | 0.1719
287.55 K | 0.1677
297.25 K | 0.1645
307.16 K | 0.1617

CCOC(C)=O [ethyl acetate]
Conditions | thermal conductivity [W/m/K]
249.13 K | 0.1618
253.89 K | 0.1602
260.17 K | 0.1574
268.04 K | 0.154
274.35 K | 0.152
281.34 K | 0.1491
285.31 K | 0.1472
290.42 K | 0.1451
295.44 K | 0.1429
298.52 K | 0.1414
303.53 K | 0.1396
308.44 K | 0.1378
313.45 K | 0.1361
318.4 K | 0.1346
323.25 K | 0.1324
328.39 K | 0.1308
333.37 K | 0.1288
338.34 K | 0.1273
343.27 K | 0.1257
345.43 K | 0.1245
348.46 K | 0.1239

CCCC(=O)OCC [ethyl butanoate]
Conditions | thermal conductivity [W/m/K]
268.57 K | 0.1471
273.61 K | 0.1446
278.63 K | 0.1423
283.58 K | 0.1408
288.65 K | 0.1385
293.58 K | 0.1374
298.53 K | 0.1357
303.56 K | 0.1339
308.67 K | 0.132
313.49 K | 0.1311
318.61 K | 0.1293
323.42 K | 0.1282
328.48 K | 0.1264
333.46 K | 0.1249
338.5 K | 0.1234
343.51 K | 0.1214
348.54 K | 0.12
353.36 K | 0.1192
358.57 K | 0.1173
363.52 K | 0.1163

CCCCCC(=O)OCC [ethyl hexanoate]
Conditions | thermal conductivity [W/m/K]
254.29 K | 0.1474
264.08 K | 0.1447
274.02 K | 0.1429
283.95 K | 0.1398
293.74 K | 0.1375
303.7 K | 0.1353
313.76 K | 0.1323
323.67 K | 0.13
333.63 K | 0.1268
343.56 K | 0.1242
353.55 K | 0.1216
363.41 K | 0.1191
373.4 K | 0.1172
383.37 K | 0.1153

CCCCC(=O)OCC [ethyl pentanoate]
Conditions | thermal conductivity [W/m/K]
249.21 K | 0.1501
263.9 K | 0.1458
273.5 K | 0.1433
283.8 K | 0.1396
288.74 K | 0.1389
289.42 K | 0.1377
293.69 K | 0.1369
298.79 K | 0.1357
303.69 K | 0.1344
308.61 K | 0.1328
313.74 K | 0.1314
318.49 K | 0.1301
323.74 K | 0.1282
328.62 K | 0.1268
333.51 K | 0.1256
338.47 K | 0.1241
343.55 K | 0.1228
348.55 K | 0.1216
353.49 K | 0.1201
358.46 K | 0.1184
363.57 K | 0.1177

CCOC(=O)CC [ethyl propanoate]
Conditions | thermal conductivity [W/m/K]
263.55 K | 0.1547
268.41 K | 0.1531
270.94 K | 0.152
278.51 K | 0.1474
283.51 K | 0.1447
288.56 K | 0.143
293.54 K | 0.1408
296.36 K | 0.1404
301.4 K | 0.1384
306.51 K | 0.1365
311.34 K | 0.1348
316.45 K | 0.1332
321.47 K | 0.1314
326.44 K | 0.13
331.53 K | 0.128
336.4 K | 0.1264
341.36 K | 0.125
346.42 K | 0.1231
351.35 K | 0.1219
356.28 K | 0.1208

O [water]
Conditions | thermal conductivity [W/m/K]
299.55 K | 0.613
309.83 K | 0.6313
319.56 K | 0.6399
332.53 K | 0.6555
339.33 K | 0.657
349.41 K | 0.6723
